The supplement of paper PMC10307832

How the values were obtained:
Assay in all cases: relative viability (nuclei count vs DMSO), 5 days (fraction); higher = more cells survive
[1] = compound: CCN1C(=O)C2=CC(=C(N=C2N(C1=O)C3CC3)N)C(=O)N + Cc1nc(Nc2ncc(C(=O)Nc3c(C)cccc3Cl)s2)cc(N2CCN(CCO)CC2)n1 [Dasatinib] (partner 0.075 µM)
Method in brief: (§1)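 One day after seeding in 1536-well plates, lung cancer cell lines were dosed by pin tool. Dosing was either single-drug or a fixed anchor-drug dose plus five library-drug doses (not always all listed) in √10 steps. After 5 days, nuclei were stained in one fix-and-stain step and counted on 4× images, and relative viability is the nuclei count of treated wells over that of vehicle wells, given as the median of duplicate plates.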

[2] = compound: CCN1C(=O)C2=CC(=C(N=C2N(C1=O)C3CC3)N)C(=O)N + Cc1cc(Nc2cc(N3CCN(C)CC3)nc(Sc3ccc(NC(=O)C4CC4)cc3)n2)n[nH]1 [Tozasertib] (partner 0.1 µM)
Method in brief: as §1

[3] = compound: CCN1C(=O)C2=CC(=C(N=C2N(C1=O)C3CC3)N)C(=O)N + N=C(N)NC(=N)NCCc1ccccc1 [Phenformin] (partner 250 µM)
Method in brief: as §1

[4] = compound: CCN1C(=O)C2=CC(=C(N=C2N(C1=O)C3CC3)N)C(=O)N + COc1cccc2cc(-c3nc([C@H]4CC[C@H](C(=O)O)CC4)n4ncnc(N)c34)[nH]c12 [OSI-027] (partner 0.5 µM)
Method in brief: as §1

[5] = compound: CCN1C(=O)C2=CC(=C(N=C2N(C1=O)C3CC3)N)C(=O)N + COc1cc2c(Oc3ccc(NC(=O)C4(C(=O)Nc5ccc(F)cc5)CC4)cc3F)ccnc2cc1OCCCN1CCOCC1 [Foretinib] (partner 0.25 µM)
Method in brief: as §1

[6] = compound: CCN1C(=O)C2=CC(=C(N=C2N(C1=O)C3CC3)N)C(=O)N + CCNC(=O)c1noc(-c2cc(C(C)C)c(O)cc2O)c1-c1ccc(CN2CCOCC2)cc1 [Luminespib] (partner 0.01 µM)
Method in brief: as §1

[7] = compound: CCN1C(=O)C2=CC(=C(N=C2N(C1=O)C3CC3)N)C(=O)N
Method in brief: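 Vehicle-anchored 1536-well plates of lung cancer cell lines, held overnight at 37 °C, were pinned with five library-drug doses (not always all listed) spaced by √10. No medium change followed over the next 5 days, after which the cells were fixed, permeabilised and Hoechst-stained together and imaged at 4×. Nuclei were counted with MetaXpress, and viability is treated-well nuclei over vehicle-well nuclei, taken as a median across plates. Plates passed with control CV below 25% and at least one doubling.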

[8] = compound: CCN1C(=O)C2=CC(=C(N=C2N(C1=O)C3CC3)N)C(=O)N + NC(=O)Nc1cc(-c2cccc(F)c2)sc1C(=O)N[C@H]1CCCNC1 [AZD7762] (partner 0.2 µM)
Method in brief: as §1

[9] = compound: CCN1C(=O)C2=CC(=C(N=C2N(C1=O)C3CC3)N)C(=O)N + Nc1nc2[nH]cc(CCc3ccc(C(=O)N[C@@H](CCC(=O)O)C(=O)O)cc3)c2c(=O)[nH]1 [Pemetrexed] (partner 0.2 µM)
Method in brief: as §1

[10] = compound: CCN1C(=O)C2=CC(=C(N=C2N(C1=O)C3CC3)N)C(=O)N + CC(=O)c1c(C)c2cnc(Nc3ccc(N4CCNCC4)cn3)nc2n(C2CCCC2)c1=O [Palbociclib] (partner 0.5 µM)
Method in brief: as §1

[11] = compound: CCN1C(=O)C2=CC(=C(N=C2N(C1=O)C3CC3)N)C(=O)N + CC(=O)Nc1cccc(-n2c(=O)n(C3CC3)c(=O)c3c(Nc4ccc(I)cc4F)n(C)c(=O)c(C)c32)c1 [Trametinib] (partner 0.02 µM)
Method in brief: as §1

[12] = compound: CCN1C(=O)C2=CC(=C(N=C2N(C1=O)C3CC3)N)C(=O)N + O=C(c1cc(Cc2n[nH]c(=O)c3ccccc23)ccc1F)N1CCN(C(=O)C2CC2)CC1 [Olaparib] (partner 8 µM)
Method in brief: as §1

[13] = compound: CCN1C(=O)C2=CC(=C(N=C2N(C1=O)C3CC3)N)C(=O)N + Nc1ncn([C@H]2C[C@H](O)[C@@H](CO)O2)c(=O)n1 [Decitabine] (partner 2 µM)
Method in brief: as §1

[14] = compound: CCN1C(=O)C2=CC(=C(N=C2N(C1=O)C3CC3)N)C(=O)N + O=C(CCCCCCC(=O)Nc1ccccc1)NO [Vorinostat] (partner 1 µM)
Method in brief: as §1

NCI-H1623
relative viability ([1]; first compound 0.253 µM): 0.518 | relative viability ([1]; first compound 0.8 µM): 0.589 | relative viability ([1]; first compound 2.53 µM): 0.627 | relative viability ([1]; first compound 8 µM): 0.595 | relative viability ([2]; first compound 0.253 µM): 0.405 | relative viability ([2]; first compound 0.8 µM): 0.442 | relative viability ([2]; first compound 2.53 µM): 0.438 | relative viability ([2]; first compound 8 µM): 0.48 | relative viability ([3]; first compound 0.253 µM): 0.514 | relative viability ([3]; first compound 0.8 µM): 0.59 | relative viability ([3]; first compound 2.53 µM): 0.63 | relative viability ([3]; first compound 8 µM): 0.567 | relative viability ([4]; first compound 0.253 µM): 0.439 | relative viability ([4]; first compound 0.8 µM): 0.428 | relative viability ([4]; first compound 2.53 µM): 0.455 | relative viability ([4]; first compound 8 µM): 0.446 | relative viability ([5]; first compound 0.253 µM): 0.856 | relative viability ([5]; first compound 0.8 µM): 0.862 | relative viability ([5]; first compound 2.53 µM): 0.94 | relative viability ([5]; first compound 8 µM): 0.939 | relative viability ([6]; first compound 0.253 µM): 0.454 | relative viability ([6]; first compound 0.8 µM): 0.452 | relative viability ([6]; first compound 2.53 µM): 0.546 | relative viability ([6]; first compound 8 µM): 0.473 | relative viability ([7]; 0.253 µM): 0.922 | relative viability ([7]; 0.8 µM): 0.992 | relative viability ([7]; 2.53 µM): 1.02 | relative viability ([7]; 8 µM): 1.13

NCI-H1648
relative viability ([8]; first compound 0.253 µM): 0.706 | relative viability ([8]; first compound 2.53 µM): 0.646 | relative viability ([8]; first compound 8 µM): 0.568 | relative viability ([2]; first compound 0.253 µM): 0.416 | relative viability ([2]; first compound 0.8 µM): 0.526 | relative viability ([2]; first compound 2.53 µM): 0.423 | relative viability ([2]; first compound 8 µM): 0.53 | relative viability ([9]; first compound 0.253 µM): 0.735 | relative viability ([9]; first compound 2.53 µM): 0.64 | relative viability ([9]; first compound 8 µM): 0.585 | relative viability ([4]; first compound 0.253 µM): 0.265 | relative viability ([4]; first compound 0.8 µM): 0.271 | relative viability ([4]; first compound 2.53 µM): 0.259 | relative viability ([4]; first compound 8 µM): 0.278 | relative viability ([10]; first compound 0.253 µM): 0.301 | relative viability ([10]; first compound 2.53 µM): 0.243 | relative viability ([10]; first compound 8 µM): 0.273 | relative viability ([11]; first compound 0.253 µM): 0.45 | relative viability ([11]; first compound 2.53 µM): 0.245 | relative viability ([11]; first compound 8 µM): 0.386 | relative viability ([12]; first compound 0.253 µM): 0.914 | relative viability ([12]; first compound 2.53 µM): 1.07 | relative viability ([12]; first compound 8 µM): 0.883 | relative viability ([13]; first compound 0.253 µM): 0.394 | relative viability ([13]; first compound 2.53 µM): 0.429 | relative viability ([13]; first compound 8 µM): 0.445 | relative viability ([14]; first compound 0.253 µM): 0.488 | relative viability ([14]; first compound 2.53 µM): 0.219 | relative viability ([14]; first compound 8 µM): 0.9 | relative viability ([7]; 0.253 µM): 0.835 | relative viability ([7]; 0.8 µM): 0.932 | relative viability ([7]; 2.53 µM): 0.89 | relative viability ([7]; 8 µM): 0.851
